Test system: yeast genes (level of expressed mRNA)
Experiment: DNA chip analysis of expressed mRNA of yeast genes after 2 h culture with a toxic chemical substance
Assay type: cell-based, Saccharomyces cerevisiae S288C
Description: Yeast (Saccharomyces cerevtisiae S288C (α SUC2mal mel gap2 CUP1)) were cultured at 25° C. on YPD medium (yeast extract 1%, polypepton 2%, glucose 2%). One of toxic chemical substances was added to the cell at logarithmic growth phase, and the cell was further cultured for two hours. Cell was cultured without any chemical substance in the same condition, and was used as control. Concentrations of the chemical substances were defined to inhibit the growth of the yeast but not lead to death.
After the completion of cultivation, the culture was centrifuged to collect the cells. To the cells, sodium acetate buffer (50 mM sodium acetate, 10 mM EDTA, 1% SDS) was added, and the mixture was shaken at 65° C. for five minutes, followed by returning to room temperature, and obtaining the supernatant, which procedure was repeated two times. To the supernatant, ½ amount of a solution of phenol/chloroform was added, and the mixture was centrifuged to give a supernatant, which was added with an equal amount of chloroform, and the mixture was centrifuged to give a supernatant. To the supernatant, an equal amount of isopropanol containing 0.3 M sodium acetate was added, and the mixture was allowed to stand at room temperature for 30 minutes, after which the mixture was centrifuged to give a sediment of the whole RNAs. Seventy % ethanol was added to the sediment, and the mixture was again centrifuged to give a sediment, which was then dried and dissolved in water. mRNA was isolated from the whole RNAs as followings. In view of the fact that a poly A chain is attached to the 3′ terminus of mRNA, a polynucleotide having a poly T structure which was immobilized on the surface of latex beads was used to trap the mRNA, and then the mRNA was washed and eluted with spine column (Oligotex-dT30<Super>mRNA Purification Kit, Takara). Reverse transcription of the mRNA was conducted with a reverse transcriptase (Super Script II Reverse Transcriptase; catalogue No. 18064-014, GibcoBRL) using fluorescence-labeled nucleotides to give cDNAs that were introduced with Cy3-dUTP or Cy5-dUTP during the reverse transcription.
The labeled cDNAs were dissolved in TE buffer (10 mM Tris-HCl/1 mM EDTA, pH8.0), and the solution was dropped on the DNA chip containing the whole genes of yeast (DNA Chip Research Inc. Japan) so that the cDNAs were hybridized on the DNA chip at 65° C. for over 12 hours. The fluoresces intensity of the DNA chip was read with a scanner, and the ratio relative to the fluorescence intensity resulting from the absence of chemical substance was estimated as the following, which is shown in Tables 1 to 9: [formula]
In the Tables, “Intensity” indicated in the rightmost column is a value of the level of expressed mRNA of each gene in control cells as divided by the average level of the expressions of the whole genes.

## γ-hexachlorocyclohexane [(7)]
Yeast gene YFL010C, ratio to control without chemical substance, 2 h culture
  The level of expressed mRNA in the presence of chemical substance/: 1.5
Yeast gene YFL024C, ratio to control without chemical substance, 2 h culture
  The level of expressed mRNA in the presence of chemical substance/: 3.3
Yeast gene YFL028C
  The level of expressed mRNA in the presence of chemical substance/The level of expressed mRNA in the absence of chemical substance: 2.0
Yeast gene YFL032W, ratio to control without chemical substance, 2 h culture
  The level of expressed mRNA in the presence of chemical substance/: 1.1
Yeast gene YFL043C
  The level of expressed mRNA in the presence of chemical substance/The level of expressed mRNA in the absence of chemical substance: 1.8
Yeast gene YGL035C
  The level of expressed mRNA in the presence of chemical substance/in the absence of chemical substance: 1.2
Yeast gene YGL037C, ratio to control without chemical substance, 2 h culture
  The level of expressed mRNA in the presence of chemical substance/: 2.9
Yeast gene YGL047W, ratio to control without chemical substance, 2 h culture
  The level of expressed mRNA in the presence of chemical substance/: 1.7
Yeast gene YGL053W, ratio to control without chemical substance, 2 h culture
  The level of expressed mRNA in the presence of chemical substance/: 3.7
Yeast gene YGL121C, ratio to control without chemical substance, 2 h culture
  The level of expressed mRNA in the presence of chemical substance/: 4.7
Yeast gene YGL158W
  The level of expressed mRNA in the presence of chemical substance/The level of expressed mRNA in the absence of chemical substance: 1.3
Yeast gene YGL199C, ratio to control without chemical substance, 2 h culture
  The level of expressed mRNA in the presence of chemical substance/: 1.3
Yeast gene YGL229C
  The level of expressed mRNA in the presence of chemical substance/The level of expressed mRNA in the absence of chemical substance: 2.2
Yeast gene YGR101W, ratio to control without chemical substance, 2 h culture
  The level of expressed mRNA in the presence of chemical substance/: 1.5
Yeast gene YGR110W, ratio to control without chemical substance, 2 h culture
  The level of expressed mRNA in the presence of chemical substance/: 1.7
Yeast gene YGR130C, ratio to control without chemical substance, 2 h culture
  The level of expressed mRNA in the presence of chemical substance/: 1.3
Yeast gene YGR136W
  The level of expressed mRNA in the presence of chemical substance/The level of expressed mRNA in the absence of chemical substance: 1.5
Yeast gene YGR154C, ratio to control without chemical substance, 2 h culture
  The level of expressed mRNA in the presence of chemical substance/: 2.0
Yeast gene YGR189C
  The level of expressed mRNA in the presence of chemical substance/The level of expressed mRNA in the absence of chemical substance: 0.6
Yeast gene YGR213C
  The level of expressed mRNA in the presence of chemical substance/The level of expressed mRNA in the absence of chemical substance: 7.0
Yeast gene YGR221C, ratio to control without chemical substance, 2 h culture
  The level of expressed mRNA in the presence of chemical substance/: 1.2
Yeast gene YGR257C
  The level of expressed mRNA in the presence of chemical substance/The level of expressed mRNA in the absence of chemical substance: 2.4
Yeast gene YGR287C
  The level of expressed mRNA in the presence of chemical substance/in the absence of chemical substance: 2.2
Yeast gene YHR004C
  The level of expressed mRNA in the presence of chemical substance/The level of expressed mRNA in the absence of chemical substance: 1.5
Yeast gene YHR071W
  The level of expressed mRNA in the presence of chemical substance/The level of expressed mRNA in the absence of chemical substance: 1.0
Yeast gene YHR138C, ratio to control without chemical substance, 2 h culture
  The level of expressed mRNA in the presence of chemical substance/: 3.0
Yeast gene YHR139C
  The level of expressed mRNA in the presence of chemical substance/The level of expressed mRNA in the absence of chemical substance: 1.5
Yeast gene YHR142W
  The level of expressed mRNA in the presence of chemical substance/The level of expressed mRNA in the absence of chemical substance: 0.9
Yeast gene YHR199C, ratio to control without chemical substance, 2 h culture
  The level of expressed mRNA in the presence of chemical substance/: 1.1
Yeast gene YIL023C, ratio to control without chemical
  The level of expressed mRNA in the presence of chemical substance/: 1.2
Yeast gene YIL041W, ratio to control without chemical substance, 2 h culture
  The level of expressed mRNA in the presence of chemical substance/: 0.8
Yeast gene YIL087C, ratio to control without chemical substance, 2 h culture
  The level of expressed mRNA in the presence of chemical substance/: 1.8
Yeast gene YIL123W
  The level of expressed mRNA in the presence of chemical substance/The level of expressed mRNA in the absence of chemical substance: 0.5
Yeast gene YIL140W
  The level of expressed mRNA in the presence of chemical substance/The level of expressed mRNA in the absence of chemical substance: 0.5
Yeast gene YJL057C, ratio to control without chemical substance, 2 h culture
  The level of expressed mRNA in the presence of chemical substance/: 2.7
Yeast gene YJL066C, ratio to control without chemical substance, 2 h culture
  The level of expressed mRNA in the presence of chemical substance/: 1.6
Yeast gene YJL070C
  The level of expressed mRNA in the presence of chemical substance/in the absence of chemical substance: 1.4
Yeast gene YJL082W, ratio to control without chemical substance, 2 h culture
  The level of expressed mRNA in the presence of chemical substance/: 0.4
Yeast gene YJL089W
  The level of expressed mRNA in the presence of chemical substance/The level of expressed mRNA in the absence of chemical substance: 1.1
Yeast gene YJL116C
  The level of expressed mRNA in the presence of chemical substance/The level of expressed mRNA in the absence of chemical substance: 0.8
Yeast gene YJL151C, ratio to control without chemical substance, 2 h culture
  The level of expressed mRNA in the presence of chemical substance/: 1.4
Yeast gene YJL152W, ratio to control without chemical substance, 2 h culture
  The level of expressed mRNA in the presence of chemical substance/: 1.2
Yeast gene YJL161W, ratio to control without chemical substance, 2 h culture
  The level of expressed mRNA in the presence of chemical substance/: 3.6
Yeast gene YJL167W
  The level of expressed mRNA in the presence of chemical substance/in the absence of chemical substance: 1.5
Yeast gene YJL171C, ratio to control without chemical substance, 2 h culture
  The level of expressed mRNA in the presence of chemical substance/: 1.4
Yeast gene YJL216C
  The level of expressed mRNA in the presence of chemical substance/in the absence of chemical substance: 1.5
Yeast gene YJR004C
  The level of expressed mRNA in the presence of chemical substance/The level of expressed mRNA in the absence of chemical substance: 0.4
Yeast gene YJR008W, ratio to control without chemical substance, 2 h culture
  The level of expressed mRNA in the presence of chemical substance/: 2.9
Yeast gene YJR054W, ratio to control without chemical
  The level of expressed mRNA in the presence of chemical substance/: 0.9
Yeast gene YJR086W
  The level of expressed mRNA in the presence of chemical substance/The level of expressed mRNA in the absence of chemical substance: 1.7
Yeast gene YKL008C
  The level of expressed mRNA in the presence of chemical substance/The level of expressed mRNA in the absence of chemical substance: 1.4
Yeast gene YKL013C
  The level of expressed mRNA in the presence of chemical substance/The level of expressed mRNA in the absence of chemical substance: 1.8
Yeast gene YKL039W
  The level of expressed mRNA in the presence of chemical substance/The level of expressed mRNA in the absence of chemical substance: 2.0
Yeast gene YKL041W
  The level of expressed mRNA in the presence of chemical substance/The level of expressed mRNA in the absence of chemical substance: 1.0
Yeast gene YKL071W, ratio to control without chemical substance, 2 h culture
  The level of expressed mRNA in the presence of chemical substance/: 3.7
Yeast gene YKL086W, ratio to control without chemical
  The level of expressed mRNA in the presence of chemical substance/: 0.7
